Drawing on PubChem BioAssay (NCI), this text covers TGI for seven molecules.

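Step 1: Grow cells in 96-well plates. Step 2: Expose to compound for 48 hours at 5 concentrations. Step 3: Interpolate endpoints linearly; if unreached, use highest concentration. TGI: concentration producing complete growth inhibition.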 Where a SMILES comes first, the peptide text is derived from it. [ ]: non-standard residue; d: D form. The star is where a group is joined. ξ: configuration not given here. ξD = NC(CC(=O)O)C(=O)O; Boc = CC(C)(C)OC(=O)*; Aib = CC(C)(N)C(=O)O; OBn = c1ccc(CO*)cc1

Among the test systems are MDA-MB-435; HS 578T breast; LOX IMVI melanoma; A498 renal; K-562 leukemia; T-47D breast; DU-145 prostate; MALME-3M melanoma; CCRF-CEM leukemia; NCI-H460 lung; PC-3 prostate; MOLT-4 leukemia; MDA-MB-231 breast; SW-620 colon; OVCAR-8 ovarian; SF-268 CNS; SK-MEL-2 melanoma; CAKI-1 renal; SR leukemia.
Test in all cases: growth of human tumour cells (NCI), 48 h

`CC(C)(C)OC(=O)NC(CC(=O)OCc1ccccc1)C(=O)NC(C)(C)C(N)=O` (stereo unspecified) (Boc-[ξD](OBn)-[Aib]-NH2): the TGI in the assay on MDA-MB-435, in the assay with HS 578T breast, in the assay on LOX IMVI melanoma, in the assay on A498 renal, in the assay on K-562 leukemia and in the assay on T-47D breast was more than 100 µM throughout. Moreover, the TGI in the assay on DU-145 prostate, in the assay on MALME-3M melanoma, in the assay on CCRF-CEM leukemia, in the assay on NCI-H460 lung, with PC-3 prostate and in the assay with MOLT-4 leukemia was more than 100 µM in each case. Further, the TGI in the assay on MDA-MB-231 breast, with SW-620 colon, in the assay with OVCAR-8 ovarian, with SF-268 CNS, with SK-MEL-2 melanoma and in the assay on CAKI-1 renal was more than 100 µM throughout.

On to `Nc1ccc(Oc2ccc(C34CC5CC(C3)CC(c3ccc(Oc6ccc(N)cc6C(F)(F)F)cc3)(C5)C4)cc2)c(C(F)(F)F)c1`, for which the TGI in the assay with MDA-MB-435 is 84.2 µM; in the assay with HS 578T breast, 42.6 µM; in the assay with LOX IMVI melanoma, 31.8 µM; with A498 renal, 35.2 µM; in the assay on K-562 leukemia, more than 100 µM; with T-47D breast, 64.5 µM. Further, the TGI with DU-145 prostate was more than 100 µM; with MALME-3M melanoma, 58.5 µM; in the assay on CCRF-CEM leukemia it was more than 100 µM; with NCI-H460 lung, 37.9 µM; in the assay on PC-3 prostate, 29.2 µM; in the assay on MOLT-4 leukemia, more than 100 µM. Moreover, the TGI was 31.5 µM in the assay on MDA-MB-231 breast; more than 100 µM in the assay on SW-620 colon; 29.5 µM in the assay with OVCAR-8 ovarian; 43.9 µM in the assay with SF-268 CNS; 28.8 µM in the assay with SK-MEL-2 melanoma; more than 100 µM with CAKI-1 renal.

For the molecule `COc1cc(C2c3cc4c(cc3OC(NNC(N)=S)C2C)OCO4)cc(OC)c1OC` (stereo unspecified), the TGI was 1.42 µM with SR leukemia; more than 100 µM with HS 578T breast; more than 100 µM in the assay with LOX IMVI melanoma; 34.7 µM in the assay with A498 renal; more than 100 µM with K-562 leukemia; more than 31.6 µM in the assay with T-47D breast. Also, the TGI is more than 100 µM with DU-145 prostate; more than 100 µM in the assay on MALME-3M melanoma; more than 100 µM in the assay with NCI-H460 lung; 8.68 µM with MDA-MB-231 breast; more than 100 µM in the assay with SW-620 colon; more than 55.1 µM in the assay with OVCAR-8 ovarian. Also, the TGI is more than 100 µM in the assay with SF-268 CNS, more than 100 µM in the assay on SK-MEL-2 melanoma and 36.3 µM in the assay with CAKI-1 renal.

Consider `CCOC(=O)C1CCCc2sc(N)c(C#N)c21` (stereo unspecified), for which the TGI with SR leukemia, in the assay on HS 578T breast, in the assay on A498 renal, in the assay with K-562 leukemia, in the assay on T-47D breast and in the assay with MALME-3M melanoma was more than 100 µM in each case. In addition, the TGI with NCI-H460 lung, in the assay on PC-3 prostate, with MOLT-4 leukemia, in the assay on MDA-MB-231 breast, in the assay with SW-620 colon and in the assay with OVCAR-8 ovarian was more than 100 µM in each case. In the assay on SK-MEL-2 melanoma, this molecule came in with a TGI of more than 100 µM.

Turning to `COc1c(Sc2c(SCSc3cnc4ccccc4c3Sc3cnc4ccccc4c3OC)cnc3ccccc23)cnc2ccccc12`, the TGI in the assay on MDA-MB-435 is more than 100 µM; with SR leukemia, 56.7 µM; in the assay on HS 578T breast, more than 100 µM; in the assay on LOX IMVI melanoma, more than 100 µM; in the assay with T-47D breast, more than 100 µM; with DU-145 prostate it was more than 100 µM. In addition, the TGI in the assay on CCRF-CEM leukemia, in the assay with NCI-H460 lung, in the assay with PC-3 prostate, in the assay with MOLT-4 leukemia, with MDA-MB-231 breast and with SW-620 colon was more than 100 µM throughout. Besides, the TGI with OVCAR-8 ovarian, in the assay with SF-268 CNS, in the assay on SK-MEL-2 melanoma and in the assay with CAKI-1 renal was more than 100 µM each time.

For `Nc1nc(Cl)c(N)c(NCC2(CO)CCC(OCc3ccccc3)C2)n1` (stereo unspecified), the TGI with MDA-MB-435 is more than 100 µM; in the assay on HS 578T breast, more than 100 µM; with LOX IMVI melanoma it was more than 100 µM; with A498 renal it was 81.5 µM; in the assay on K-562 leukemia it was more than 100 µM; in the assay on T-47D breast, more than 100 µM. Also, the TGI in the assay on DU-145 prostate, with MALME-3M melanoma, in the assay with CCRF-CEM leukemia, in the assay with NCI-H460 lung, with PC-3 prostate and with MOLT-4 leukemia was more than 100 µM each time. The TGI in the assay on MDA-MB-231 breast, with SW-620 colon, with OVCAR-8 ovarian, in the assay with SF-268 CNS, with SK-MEL-2 melanoma and in the assay with CAKI-1 renal was more than 100 µM in each case.

As for `NC1CCN(c2nc3ccccc3c3c2CCCC3)CC1`, the TGI in the assay with MDA-MB-435 was 7.61 µM; with HS 578T breast, more than 100 µM; in the assay with LOX IMVI melanoma it was 14.2 µM; with A498 renal, 22.7 µM; with K-562 leukemia it was 6.58 µM; in the assay with T-47D breast, 7.29 µM. In addition, the TGI in the assay with DU-145 prostate came to 24.3 µM; in the assay with MALME-3M melanoma, 19.8 µM; in the assay on CCRF-CEM leukemia, 15.2 µM; in the assay on NCI-H460 lung, 13.5 µM; with PC-3 prostate, 20.4 µM; in the assay with MOLT-4 leukemia, 9.36 µM. In addition, the TGI is 12.8 µM in the assay with MDA-MB-231 breast; 12.7 µM with SW-620 colon; 32.8 µM in the assay on OVCAR-8 ovarian; 33 µM in the assay with SF-268 CNS; 10.5 µM in the assay on SK-MEL-2 melanoma; 19.1 µM with CAKI-1 renal.
